What was measured:
THZ1 [1] = compound: T1, CN(C)C/C=C/C(=O)Nc1ccc(C(=O)Nc2cccc(Nc3ncc(Cl)c(-c4c[nH]c5ccccc45)n3)c2)cc1 [THZ1]; assay: GR value, 72 h; higher = faster growth (1 = untreated, <0 = killing);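 further: breast cancer and non-malignant breast epithelial lines, nine half-log doses, viable cells counted by Hoechst and LIVE/DEAD dye imaging versus time-zero plates and DMSO controls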
Neratinib/HKI272 [2] = compound: T2, CCOc1cc2ncc(C#N)c(Nc3ccc(OCc4ccccn4)c(Cl)c3)c2cc1NC(=O)/C=C/CN(C)C [Neratinib/HKI272]; assay: as above
THZ531 = compound: CN(C)C/C=C/C(=O)Nc1ccc(C(=O)N2CCC[C@@H](Nc3ncc(Cl)c(-c4c[nH]c5ccccc45)n3)C2)cc1 [THZ531]; assay: increase in dead-cell fraction, 72 h; higher = more death;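 further: breast cancer cell lines in 384-well plates, stained with Hoechst plus LIVE/DEAD far red dye and imaged, cells above an LDR intensity threshold counted dead, Hoechst-negative corpses included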
LEE011/Ribociclib = compound: CN(C)C(=O)c1cc2cnc(Nc3ccc(N4CCNCC4)cn3)nc2n1C1CCCC1 [LEE011/Ribociclib]; assay: as above
THZ1 [3] = compound: T1, THZ1; assay: as above
[4] = compound: CC(=O)c1c(C)c2cnc(Nc3ccc(N4CCNCC4)cn3)nc2n(C2CCCC2)c1=O; assay: as above
Neratinib/HKI272 [5] = compound: T2, Neratinib/HKI272; assay: as above
[6] = compound: CCN1CCN(Cc2ccc(Nc3ncc(F)c(-c4cc(F)c5nc(C)n(C(C)C)c5c4)n3)nc2)CC1; assay: as above
[7] = compound: CCc1cnn2c(NCc3ccc[n+]([O-])c3)cc(N3CCCC[C@H]3CCO)nc12; assay: as above
YKL-5-124 = compound: C=CC(=O)Nc1ccc(C(=O)Nc2[nH]nc3c2CN(C(=O)N[C@H](CN(C)C)c2ccccc2)C3(C)C)cc1 [YKL-5-124]; assay: as above
Flavopiridol = compound: CN1CC[C@H](c2c(O)cc(O)c3c(=O)cc(-c4ccccc4Cl)oc23)[C@H](O)C1 [Flavopiridol]; assay: as above
BSJ-03-123 = compound: CC(=O)c1c(C)c2cnc(Nc3ccc(N4CCN(CCOCCOCCOCCNC(=O)COc5cccc6c5C(=O)N(C5CCC(=O)NC5=O)C6=O)CC4)cn3)nc2n(C2CCCC2)c1=O [BSJ-03-123]; assay: as above

For SUM229PE, the GR value (THZ1 [1]; 0.0001 µM) was 1 GR, the GR value (THZ1 [1]; 0.0003162 µM) was 1 GR and the GR value (THZ1 [1]; 0.001 µM) was 1.04 GR. The GR value (THZ1 [1]; 0.003162 µM) was 0.953 GR, the GR value (THZ1 [1]; 0.01 µM) was 0.65 GR and the GR value (THZ1 [1]; 0.03162 µM) was 0.283 GR. It also gave a GR value (THZ1 [1]; 0.1 µM) of -0.0615 GR, a GR value (THZ1 [1]; 0.3162 µM) of -0.216 GR and a GR value (THZ1 [1]; 1 µM) of -0.297 GR. It also gave a GR value (Neratinib/HKI272 [2]; 0.0003162 µM) of 1.03 GR, a GR value (Neratinib/HKI272 [2]; 0.001 µM) of 0.967 GR and a GR value (Neratinib/HKI272 [2]; 0.003162 µM) of 0.972 GR. For the same cell line, the GR value (Neratinib/HKI272 [2]; 0.01 µM) was 0.951 GR, the GR value (Neratinib/HKI272 [2]; 0.03162 µM) was 0.952 GR and the GR value (Neratinib/HKI272 [2]; 0.1 µM) was 0.751 GR. The GR value (Neratinib/HKI272 [2]; 0.3162 µM) was 0.562 GR, the GR value (Neratinib/HKI272 [2]; 1 µM) was 0.386 GR and the GR value (Neratinib/HKI272 [2]; 3.162 µM) was 0.203 GR. For the same cell line, the “increase in dead-cell fraction” value (THZ531; 0.0001 µM) was 0.0065, the “increase in dead-cell fraction” value (THZ531; 0.0003162 µM) was 0.0019 and the “increase in dead-cell fraction” value (THZ531; 0.001 µM) was -0.0006. The “increase in dead-cell fraction” value (THZ531; 0.003162 µM) was 0.0039, the “increase in dead-cell fraction” value (THZ531; 0.01 µM) was -0.0022 and the “increase in dead-cell fraction” value (THZ531; 0.03162 µM) was -0.005. For the same cell line, the “increase in dead-cell fraction” value (THZ531; 0.1 µM) was -0.0018, the “increase in dead-cell fraction” value (THZ531; 0.3162 µM) was 0.0175 and the “increase in dead-cell fraction” value (THZ531; 1 µM) was 0.0884. For the same cell line, the “increase in dead-cell fraction” value (LEE011/Ribociclib; 0.001 µM) was 0.0025, the “increase in dead-cell fraction” value (LEE011/Ribociclib; 0.003162 µM) was -0.003 and the “increase in dead-cell fraction” value (LEE011/Ribociclib; 0.01 µM) was 0.0012. The “increase in dead-cell fraction” value (LEE011/Ribociclib; 0.03162 µM) was 0.0068, the “increase in dead-cell fraction” value (LEE011/Ribociclib; 0.1 µM) was 0.0061 and the “increase in dead-cell fraction” value (LEE011/Ribociclib; 0.3162 µM) was 0.0005. The “increase in dead-cell fraction” value (LEE011/Ribociclib; 1 µM) was 0.0021, the “increase in dead-cell fraction” value (LEE011/Ribociclib; 3.162 µM) was 0.0223 and the “increase in dead-cell fraction” value (LEE011/Ribociclib; 10 µM) was 0.0109. The “increase in dead-cell fraction” value (THZ1 [3]; 0.0001 µM) was 0.0012, the “increase in dead-cell fraction” value (THZ1 [3]; 0.0003162 µM) was 0.0126 and the “increase in dead-cell fraction” value (THZ1 [3]; 0.001 µM) was 0.0025. The “increase in dead-cell fraction” value (THZ1 [3]; 0.003162 µM) was 0.0048, the “increase in dead-cell fraction” value (THZ1 [3]; 0.01 µM) was 0.0291 and the “increase in dead-cell fraction” value (THZ1 [3]; 0.03162 µM) was 0.0152. For the same cell line, the “increase in dead-cell fraction” value (THZ1 [3]; 0.1 µM) was 0.0835, the “increase in dead-cell fraction” value (THZ1 [3]; 0.3162 µM) was 0.124 and the “increase in dead-cell fraction” value (THZ1 [3]; 1 µM) was 0.127. The “increase in dead-cell fraction” value ([4]; 0.0003162 µM) was -0.0072, the “increase in dead-cell fraction” value ([4]; 0.001 µM) was 0.0057 and the “increase in dead-cell fraction” value ([4]; 0.003162 µM) was -0.0076. For the same cell line, the “increase in dead-cell fraction” value ([4]; 0.01 µM) was -0.0059, the “increase in dead-cell fraction” value ([4]; 0.03162 µM) was -0.0018 and the “increase in dead-cell fraction” value ([4]; 0.1 µM) was -0.0045. For the same cell line, the “increase in dead-cell fraction” value ([4]; 0.3162 µM) was -0.0032, the “increase in dead-cell fraction” value ([4]; 1 µM) was -0.0082 and the “increase in dead-cell fraction” value ([4]; 3.162 µM) was 0.009. For the same cell line, the “increase in dead-cell fraction” value (Neratinib/HKI272 [5]; 0.0003162 µM) was 0.0008, the “increase in dead-cell fraction” value (Neratinib/HKI272 [5]; 0.001 µM) was 0.0005 and the “increase in dead-cell fraction” value (Neratinib/HKI272 [5]; 0.003162 µM) was -0.0005. For the same cell line, the “increase in dead-cell fraction” value (Neratinib/HKI272 [5]; 0.01 µM) was 0.0001, the “increase in dead-cell fraction” value (Neratinib/HKI272 [5]; 0.03162 µM) was 0.0043 and the “increase in dead-cell fraction” value (Neratinib/HKI272 [5]; 0.1 µM) was 0.0062. For the same cell line, the “increase in dead-cell fraction” value (Neratinib/HKI272 [5]; 0.3162 µM) was 0.0046, the “increase in dead-cell fraction” value (Neratinib/HKI272 [5]; 1 µM) was 0.0111 and the “increase in dead-cell fraction” value (Neratinib/HKI272 [5]; 3.162 µM) was 0.0132. The “increase in dead-cell fraction” value ([6]; 0.001 µM) was -0.0006, the “increase in dead-cell fraction” value ([6]; 0.003162 µM) was 0.004 and the “increase in dead-cell fraction” value ([6]; 0.01 µM) was -0.0023. The “increase in dead-cell fraction” value ([6]; 0.03162 µM) was -0.0024, the “increase in dead-cell fraction” value ([6]; 0.1 µM) was 0.0008 and the “increase in dead-cell fraction” value ([6]; 0.3162 µM) was -0.006. The “increase in dead-cell fraction” value ([6]; 1 µM) was 0.0054, the “increase in dead-cell fraction” value ([6]; 3.162 µM) was 0.0064 and the “increase in dead-cell fraction” value ([6]; 10 µM) was 0.0095. The “increase in dead-cell fraction” value ([7]; 0.0001 µM) was -0.0001, the “increase in dead-cell fraction” value ([7]; 0.0003162 µM) was -0.0086 and the “increase in dead-cell fraction” value ([7]; 0.001 µM) was 0.0057. For the same cell line, the “increase in dead-cell fraction” value ([7]; 0.003162 µM) was -0.0015, the “increase in dead-cell fraction” value ([7]; 0.01 µM) was 0.0106 and the “increase in dead-cell fraction” value ([7]; 0.03162 µM) was 0.0583. The “increase in dead-cell fraction” value ([7]; 0.1 µM) was 0.0925, the “increase in dead-cell fraction” value ([7]; 0.3162 µM) was 0.0682 and the “increase in dead-cell fraction” value ([7]; 1 µM) was 0.0926. For the same cell line, the “increase in dead-cell fraction” value (YKL-5-124; 0.001 µM) was 0.0368, the “increase in dead-cell fraction” value (YKL-5-124; 0.003162 µM) was 0.0432 and the “increase in dead-cell fraction” value (YKL-5-124; 0.01 µM) was 0.0321. The “increase in dead-cell fraction” value (YKL-5-124; 0.03162 µM) was 0.0316, the “increase in dead-cell fraction” value (YKL-5-124; 0.1 µM) was 0.0267 and the “increase in dead-cell fraction” value (YKL-5-124; 0.3162 µM) was 0.0384. The “increase in dead-cell fraction” value (YKL-5-124; 1 µM) was 0.0161, the “increase in dead-cell fraction” value (YKL-5-124; 3.162 µM) was 0.0213 and the “increase in dead-cell fraction” value (YKL-5-124; 10 µM) was 0.0246. For the same cell line, the “increase in dead-cell fraction” value (Flavopiridol; 0.0001 µM) was -0.0011, the “increase in dead-cell fraction” value (Flavopiridol; 0.0003162 µM) was -0.0025 and the “increase in dead-cell fraction” value (Flavopiridol; 0.001 µM) was 0.0061. The “increase in dead-cell fraction” value (Flavopiridol; 0.003162 µM) was 0.0065, the “increase in dead-cell fraction” value (Flavopiridol; 0.01 µM) was -0.0032 and the “increase in dead-cell fraction” value (Flavopiridol; 0.03162 µM) was -0.003. For the same cell line, the “increase in dead-cell fraction” value (Flavopiridol; 0.1 µM) was 0.0189, the “increase in dead-cell fraction” value (Flavopiridol; 0.3162 µM) was 0.0897 and the “increase in dead-cell fraction” value (Flavopiridol; 1 µM) was 0.0752. For the same cell line, the “increase in dead-cell fraction” value (BSJ-03-123; 0.001 µM) was 0.0053, the “increase in dead-cell fraction” value (BSJ-03-123; 0.003162 µM) was 0.0041 and the “increase in dead-cell fraction” value (BSJ-03-123; 0.01 µM) was -0.0026. For the same cell line, the “increase in dead-cell fraction” value (BSJ-03-123; 0.03162 µM) was -0.0037, the “increase in dead-cell fraction” value (BSJ-03-123; 0.1 µM) was 0.0091 and the “increase in dead-cell fraction” value (BSJ-03-123; 0.3162 µM) was 0.0164. For the same cell line, the “increase in dead-cell fraction” value (BSJ-03-123; 1 µM) was 0.007, the “increase in dead-cell fraction” value (BSJ-03-123; 3.162 µM) was 0.0152 and the “increase in dead-cell fraction” value (BSJ-03-123; 10 µM) was 0.0241.

Reference: the supplement of paper PMC9663587
